Results reported in patent publication US20080227819A1, “Method for identifying the agonistic activity of a target compound on a potassium channel” (Gruenenthal GmbH, priority 2007, published 2008).

What was measured:
Format in all cases: cell-based
[1] = molecular target: T1, KCNQ2 channels and KCNQ3 channels (Homo sapiens, UniProt O43525+O43526); assay: hyperpolarisation assay format, voltage-sensitive fluorescent dye, CHO cells expressing KCNQ channels; settings: retigabine 30 μM, ΔF/F, control cells subtracted, FIG. 2
T1 construct: expressed in transfected cells; host or cells: CHO cells (Chinese hamster ovary cells)
T1 sequence (O43525 whole entry): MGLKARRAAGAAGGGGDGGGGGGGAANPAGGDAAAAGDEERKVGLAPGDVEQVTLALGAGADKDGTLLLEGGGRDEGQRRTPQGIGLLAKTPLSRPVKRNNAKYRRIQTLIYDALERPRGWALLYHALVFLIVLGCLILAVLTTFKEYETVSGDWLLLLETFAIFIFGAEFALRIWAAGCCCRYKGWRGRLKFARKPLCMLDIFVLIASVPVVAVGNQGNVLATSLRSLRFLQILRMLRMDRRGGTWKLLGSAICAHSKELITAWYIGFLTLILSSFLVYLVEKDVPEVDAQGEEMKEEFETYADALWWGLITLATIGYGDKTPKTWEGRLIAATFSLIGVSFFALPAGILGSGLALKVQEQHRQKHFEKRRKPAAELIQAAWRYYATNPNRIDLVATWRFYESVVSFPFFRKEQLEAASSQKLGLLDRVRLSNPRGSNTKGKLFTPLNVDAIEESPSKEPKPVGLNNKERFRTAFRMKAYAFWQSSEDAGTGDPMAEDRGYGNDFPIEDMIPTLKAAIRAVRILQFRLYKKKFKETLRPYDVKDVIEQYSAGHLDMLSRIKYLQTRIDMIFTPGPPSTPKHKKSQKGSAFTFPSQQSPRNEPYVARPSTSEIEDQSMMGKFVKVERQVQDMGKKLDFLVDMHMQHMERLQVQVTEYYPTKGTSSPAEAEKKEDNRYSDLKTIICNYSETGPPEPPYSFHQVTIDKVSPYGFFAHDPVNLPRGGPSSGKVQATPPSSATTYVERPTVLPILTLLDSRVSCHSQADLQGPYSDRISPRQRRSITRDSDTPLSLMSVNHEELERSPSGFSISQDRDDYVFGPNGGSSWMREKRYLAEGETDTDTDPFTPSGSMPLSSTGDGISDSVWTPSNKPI
T1 sequence (O43526 whole entry): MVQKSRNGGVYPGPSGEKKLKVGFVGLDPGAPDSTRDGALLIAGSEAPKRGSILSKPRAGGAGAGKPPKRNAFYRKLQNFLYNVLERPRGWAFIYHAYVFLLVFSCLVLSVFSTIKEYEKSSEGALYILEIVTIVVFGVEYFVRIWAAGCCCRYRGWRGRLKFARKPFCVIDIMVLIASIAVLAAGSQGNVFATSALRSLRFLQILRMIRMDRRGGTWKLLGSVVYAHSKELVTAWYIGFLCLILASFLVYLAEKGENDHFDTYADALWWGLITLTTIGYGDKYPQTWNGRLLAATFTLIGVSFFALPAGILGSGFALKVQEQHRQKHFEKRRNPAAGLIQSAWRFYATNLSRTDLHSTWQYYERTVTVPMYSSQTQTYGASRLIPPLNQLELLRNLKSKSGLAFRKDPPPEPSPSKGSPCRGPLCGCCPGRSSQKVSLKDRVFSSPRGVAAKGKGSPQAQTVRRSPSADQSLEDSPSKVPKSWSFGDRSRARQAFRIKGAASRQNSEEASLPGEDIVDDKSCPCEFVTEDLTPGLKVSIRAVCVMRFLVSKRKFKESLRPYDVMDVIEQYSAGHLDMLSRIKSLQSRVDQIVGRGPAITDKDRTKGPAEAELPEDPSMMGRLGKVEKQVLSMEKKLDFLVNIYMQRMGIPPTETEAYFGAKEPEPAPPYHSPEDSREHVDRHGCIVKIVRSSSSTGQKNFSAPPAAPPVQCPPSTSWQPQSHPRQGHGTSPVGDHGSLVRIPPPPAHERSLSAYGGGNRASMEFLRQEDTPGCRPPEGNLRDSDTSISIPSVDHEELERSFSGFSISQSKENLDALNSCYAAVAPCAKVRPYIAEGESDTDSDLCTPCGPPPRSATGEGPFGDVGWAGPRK
Protocol: FIG. 2: Effect of retigabine on the membrane potential of cells expressing KCNQ channels in a hyperpolarisation assay format. The time response of the fluorescence intensity in CHO cells expressing KCNQ channels before and after the application (arrow) of a known KCNQ channel opener (retigabine, 30 μM) is depicted.
The cells were seeded into assay plates and loaded with the dye in exactly the same way as described in Example 1. The measurements were carried out by a Fluostar or Polarstar fluorescence reader of the company BMG or the FlexStation of the company Molecular Devices. It was excited at a wavelength of 525 nm and detected at a wavelength of 560 nm. After incubation with the dye, the base line was monitored for 5 min. Then either 50 up ES buffer (control) or 50 μl of the KCNQ agonist retigabine (30 μM) were added and the fluorescence was monitored in an appropriate reader for 7.5 min.
In FIG. 2 the time response of the fluorescence intensity of CHO cells expressing KCNQ channels before and after the application (arrow) of the known KCNQ channel opener (retigabine, 30 μM) is depicted. The percental change in the fluorescence intensity (ΔF/F) based on the averaged fluorescence intensity before the application of retigabine is depicted. The course of the fluorescence of the control cells (application of buffer) was subtracted from the retigabine-induced fluorescence signal.

[2] = molecular target: T1, KCNQ2 channels and KCNQ3 channels; assay: ion jump assay format for searching for potassium channel blockers (potassium injection to extracellular medium); settings: KCl final concentration 91.8 mM, FIG. 3
Protocol: FIG. 3: Influence of XE991 on the fluorescence response after potassium injection to the extracellular medium in a ion jump assay format for searching for potassium channel blockers. The time response of the fluorescence intensity of CHO cells expressing the KCNQ channels before and after the application (arrow) of […] potassium chloride is depicted.
The seeding of KCNQ-expressing cells in assay plates, the loading with the dye and the measurement devices to be used as well as the wavelengths to be set are in accordance with Example 1. […] Then the base line was monitored in the fluorescence reader for 3-4 min and the fluorescence values were measured for 10 min after the injection of 15 μl of a KCl solution (final concentration 91.8 mM) in each cavity of the plate.
In FIG. 3 the time response of the fluorescence intensity of CHO cells expressing the KCNQ channels before and after the application (arrow) of 91.8 mM potassium chloride is depicted. The fluorescence responses of the cells in the absence (Δ) and presence (▪) of the known KCNQ channel blocker XE991 (60 μM) are shown. The percental change in the fluorescence intensity (ΔF/F) based on the averaged fluorescence intensity before the potassium application is depicted.

[3] = molecular target: T1, KCNQ2 channels and KCNQ3 channels; assay: depolarisation assay format, voltage-sensitive fluorescent dye, CHO cells expressing KCNQ channels; settings: saturating concentration of XE991 (60 μM), ΔF/F, control cells subtracted, FIG. 1
Protocol: FIG. 1: Effect of XE991 on the membrane potential of cells expressing KCNQ channels in a depolarisation assay format. The time response of the fluorescence intensity of CHO cells expressing KCNQ channels before and after the application (arrow) of a known KCNQ channel blocker (XE991, 60 μM) is depicted.
CHO cells (Chinese hamster ovary cells) expressing KCNQ2 channels and KCNQ3 channels were adherently cultivated in a nutrient medium [Minimum Essential Medium (MEM), α medium 22571 1×liquid (Invitrogen), 10% Fetal Calf Serum (FCS) (Gibco, heat inactivated), including selection antibiotics] at 37° C., 5% CO2 and 95% air humidity in cell culture bottles. […] After incubation with the dye, either 50 μl ES (control) or 50 μl of the KCNQ channel blocker XE991 in independent wells in a saturating concentration (final concentration 60 μM) were added and incubated for […] with concurrent monitoring of the fluorescence in the reader. The measurements were carried out by a Fluostar or Polarstar fluorescence reader of the company BMG or the FlexStation of the company Molecular Devices. It was excited at a wavelength of 525 nm and detected at a wavelength of 560 nm.
In FIG. 1 the time response of the fluorescence intensity of CHO cells expressing KCNQ channels before and after the application (arrow) of a known KCNQ channel blocker (XE991) is depicted. […]

Structure (SMILES) | decrease in the fluorescence intensity after application of retigabine [1] | difference of the amplitudes of the fluorescence responses in the presence and in the absence of a KCNQ channel blocker (dynamic range of the assay) ([2]; XE991 60 μM vs control cells) | fluorescence response after the potassium application in the presence of the blocker ([2]; saturating concentration of XE991 (60 μM), 30 min, control cells show increase by about 80%) | increase in the fluorescence intensity after application of the KCNQ channel blocker [3]
CCOC(=O)Nc1ccc(NCc2ccc(F)cc2)cc1N [retigabine] | 35-40% | – | – | –
O=C1c2ccccc2C(Cc2ccncc2)(Cc2ccncc2)c2ccccc21 [XE991] | – | about 80% | no increase in the fluorescence | about 55%
